Measurements reported in PMC9833666, “Designing and identifying β-hairpin peptide macrocycles with antibiotic potential” (Science Advances, 2023).
Read-outs that look alike come from different tables or passages of the source. Bridge positions count the residues as written; N and C are the ends. Peptide text beside a SMILES is read from it.

How the values were obtained:
[1] = tested on: gram-positive and gram-negative pathogens, including colistin-resistant strains; assay: MIC against pathogen panel (tables S4 and S5, not shown); assay type: cell-based
Experimental: MICs were performed by a modifiedClinical and Laboratory Standards Institute) procedure. Stock peptides were diluted to 2.56 mg/ml in 50 μl of 0.01% acetic acid containing 0.2% bovine serum albumin. Peptide was then serially diluted twofold in this solution, and 10 μl of each dilution was added to a polypropylene 96-well plate (Corning, ref. no. 3879) in triplicate. Separately, E. coli W3110 or A. baumannii AB5075 was grown overnight in 5 ml of standard MH at 37°C. Cells from these cultures were diluted to a concentration of 5 × 10^5 to 6 × 10^5 cells/ml in either standard MH, MHII, RPMI, or fetal bovine serum, and 90 μl was added to each well of the 96-well plate containing diluted peptide. Plates were wrapped twice in parafilm and incubated at 37°C for 18 to 24 hours. Wells were examined by eye against wells with no bacteria for signs of growth. MICs were reported as the minimum concentration with no observable growth. In cases where triplicate samples differed, the concentration supported by the median of the three replicates was reported.
A. baumannii 17978 Lab Stock
A. baumannii 17978 R2 Lab Stock
V. cholerae C6706 Lab Stock
P. aeruginosa ATCC 27853 ATCC
K. pneumonia ATCC 1705 ATCC
S. aureus USA100 Lab Stock
Excel spreadsheet with chemically synthesized peptide properties and biochemical data.
Excel spreadsheet with all SynCH SLAY data analysis and potency score predictions

[2] = tested on: Acinetobacter baumannii AB5075; conditions: for AB5075 MIC FBS: 100% fetal bovine serum; for AB5075 MIC MH: Mueller-Hinton
[3] = tested on: Single-donor human red blood cells; assay: Hemolysis assay; assay type: cell-based; conditions: hemolysis at 128 µg/ml
Summary of the method: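 Peptides at 300 μg/ml (SySA library) or 128 μg/ml (SySA-5 optimization library) were incubated in triplicate with washed single-donor RBCs (1 × 10^9 cells/ml) for 3 h at 37 °C. Supernatant A540 was background-normalized to PBS and expressed relative to 1% Triton X-100 (100% hemolysis).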

For `CC(C)C[C@@H]1NC(=O)[C@H](CCCNC(=N)N)NC(=O)[C@H](C(C)C)NC(=O)[C@H](CCCCN)NC(=O)[C@@H]2CSSC[C@H](NC(=O)[C@H](CCCNC(=N)N)NC(=O)[C@H](CC(C)C)NC(=O)[C@H](CCCNC(=N)N)NC(=O)[C@H](C(C)C)NC(=O)[C@H](CCCNC(=N)N)NC(=O)[C@@H](N)CSSC[C@@H](C(=O)O)NC(=O)[C@H](CCCNC(=N)N)NC1=O)C(=O)N[C@@H](CCCNC(=N)N)C(=O)N[C@@H](CCCNC(=N)N)C(=O)N[C@@H](CCCNC(=N)N)C(=O)N[C@@H](CCCNC(=N)N)C(=O)N2` [SySA-5.17] (H-CRVRLRCRRRRCKVRLRC-OH; disulfide 1-18, 7-12 (inferred); N-terminus and C-terminus assumed), the spectrum of activity [1] was “broad-spectrum activity”, the “AB5075 MIC FBS” value ([2]; median of triplicate) was 32 µg/mL and the “AB5075 MIC FBS” value ([2]; replicate 1) was 32 µg/mL. For the same compound, the “AB5075 MIC FBS” value ([2]; replicate 2) was 32 µg/mL, the “AB5075 MIC FBS” value ([2]; replicate 3) was 32 µg/mL and the “AB5075 MIC MH” value ([2]; replicate 1) was 4 µg/mL. The “AB5075 MIC MH” value ([2]; replicate 2) was 4 µg/mL, the “AB5075 MIC MH” value ([2]; replicate 3) was 4 µg/mL and the “fold less hemolytic (toxicity) than Protegrin-1” value [3] was “over 10 fold”. The “Fold Change Hemolysis” value ([3]; fold change relative to SySA-5) was 2.4 and the “fold less hemolytic (toxicity) than Protegrin-1” value ([3]; listed as SySA 5.17) was “greater than ten-fold”.
